Data published in patent US11739074B2, “Ras inhibitors” (Revolution Medicines, Inc., priority 2019, dated 2023).
Like-named read-outs stand apart in the source and are kept apart here.

Legend:
Assay type in all cases: cell-based
NCI-H358 (K-Ras G12C) = assay: CellTiter-Glo cell viability assay, H358; details: Homo sapiens, NCI-H358, 120 h
Summary of the method: (§1)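 Viability is scored by CellTiter-Glo luminescence on day 5 of compound treatment, relative to vehicle (DMSO) wells set as 100%, with a four-parameter logistic fit.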

AsPC-1 (K-Ras G12D) [1] = assay: CellTiter-Glo cell viability assay, AsPC-1; details: Homo sapiens, ASPC1, 120 h
Summary of the method: as §1

AsPC-1 (K-Ras G12D) [2] = assay: Potency assay: pERK in AsPC-1 cells; details: Homo sapiens
[3] = read-out: H358 Cell Viability IC50, NCI-H358, K-Ras G12C, 5-day treatment
[4] = read-out: AsPC-1 Cell Viability IC50, AsPC-1, K-Ras G12D, 5-day treatment
[5] = ASPC1, read-out: pERK EC50 (AsPC-1 KRAS G12D)
[6] = NCI-H358, K-Ras G12C, 5-day treatment, read-out: H358 Cell Viability IC50
[7] = AsPC-1, K-Ras G12D, 5-day treatment, read-out: AsPC-1 Cell Viability IC50
[8] = ASPC1, AsPC-1 cells, K-Ras G12D, read-out: pERK EC50 (AsPC-1 KRAS G12D)

Row | Compound | IC50 (NCI-H358 (K-Ras G12C); [3]) [nM] | IC50 (AsPC-1 (K-Ras G12D) [1]; [4]) [nM] | EC50 (AsPC-1 (K-Ras G12D) [2]; [5]) [nM] | IC50 (NCI-H358 (K-Ras G12C); [6]) [nM] | IC50 (AsPC-1 (K-Ras G12D) [1]; [7]) [nM] | EC50 (AsPC-1 (K-Ras G12D) [2]; [8]) [nM]
1 | CCn1c(-c2cccnc2[C@H](C)OC)c2c3cc(ccc31)-c1cccc(c1)C[C@H](NC(=O)[C@H](C(C)C)N(C)C(=O)CN(C)C(=O)[C@H]1CN1)C(=O)N1CCC[C@H](N1)C(=O)OCC(C)(C)C2 [Compound 107] | 100 to 1000 | 1000 to 10000 | < 5000 |  |  | 
2 | CCn1c(-c2cc(C3CCN(C)CC3)cnc2[C@H](C)OC)c2c3cc(ccc31)-c1cc(O)cc(c1)C[C@H](NC(=O)[C@H](C1CCCC1)N(C)C(=O)CN(C)C(=O)[C@H]1CN1)C(=O)N1CCC[C@H](N1)C(=O)OCC(C)(C)C2 [Compound 230] |  |  |  | 10 to 100 | 10 to 100 | < 5000
3 | CCn1c(-c2cccnc2[C@H](C)OC)c2c3cc(ccc31)-c1cc(O)cc(c1)C[C@H](NC(=O)[C@H](C1CCCC1)N(C)C(=O)[C@H](C)N(C)C(=O)[C@@H]1N[C@@H]1C1CC1)C(=O)N1CCC[C@H](N1)C(=O)OCC(C)(C)C2 [Compound 328] |  |  |  | < 10 | 100 to 1000 | < 5000
4 | CCn1c(-c2cccnc2[C@H](C)OC)c2c3cc(ccc31)-c1cc(O)cc(c1)C[C@H](NC(=O)[C@H](C(C)C)N(C)C(=O)CN(C)C(=O)[C@@H]1CN1CCCOC)C(=O)N1CCC[C@H](N1)C(=O)OCC(C)(C)C2 (stereo partly drawn) [Compound 137] | < 10 | 100 to 1000 | < 5000 |  |  | 
5 | CCn1c(-c2cccnc2[C@H](C)OC)c2c3cc(ccc31)-c1csc(n1)C[C@H](NC(=O)[C@H](C1CCCC1)N(C)C(=O)CN(C)C(=O)[C@@H]1N[C@@H]1C1CC1)C(=O)N1CCC[C@H](N1)C(=O)OCC(C)(C)C2 [Compound 210] |  |  |  | 100 to 1000 | 100 to 1000 | < 5000
6 | CCn1c(-c2cccnc2[C@H](C)OC)c2c3cc(ccc31)-c1cc(O)cc(c1)C[C@H](NC(=O)[C@H](C(C)C)N(C)C(=O)CN(C)C(=O)[C@H]1CN1CCCC#N)C(=O)N1CCC[C@H](N1)C(=O)OCC(C)(C)C2 (stereo partly drawn) [Compound 273] | < 10 | 100 to 1000 | < 5000 |  |  | 
7 | CCn1c(-c2cccnc2[C@H](C)OC)c2c3cc(ccc31)-c1cc(O)cc(c1)C[C@H](NC(=O)[C@H](C(C)C)N(C)C(=O)[C@@H]1CCN(C(=O)[C@H]3CN3)[C@@H]1C)C(=O)N1CCC[C@H](N1)C(=O)OCC(C)(C)C2 [Compound 207] |  |  |  | < 10 | 100 to 1000 | < 5000
8 | CCn1c(-c2cccnc2[C@H](C)OC)c2c3cc(ccc31)-c1csc(n1)C[C@H](NC(=O)[C@H](C(C)C)N(C)C(=O)N1CCN(C(=O)[C@@H]3CN3)CC1)C(=O)N1CCC[C@H](N1)C(=O)OCC(C)(C)C2 [Compound 168] |  |  |  | 10 to 100 | 100 to 1000 | < 5000
9 | CCn1c(-c2cccnc2[C@H](C)OC)c2c3cc(ccc31)-c1cc(O)cc(c1)C[C@H](NC(=O)[C@H](C(C)C)N(C)C(=O)CN(C)C(=O)[C@H]1C[C@@H]3N[C@@H]3C1)C(=O)N1CCC[C@H](N1)C(=O)OCC(C)(C)C2 [Compound 285] |  |  |  | 100 to 1000 | 10 to 100 | < 5000
10 | CCn1c(-c2cccnc2[C@H](C)OC)c2c3cc(ccc31)-c1cc(O)cc(c1)C[C@H](NC(=O)[C@H](C(C)C)N(C)C(=O)CN(C)C(=O)[C@H]1CN1Cc1ccccc1F)C(=O)N1CCC[C@H](N1)C(=O)OCC(C)(C)C2 (stereo partly drawn) [Compound 155] | < 10 | 100 to 1000 | < 5000 |  |  | 
11 | CCn1c(-c2cc(N3CCN(C)CC3)cnc2[C@H](C)OC)c2c3cc(ccc31)-c1cc(O)cc(c1)C[C@H](NC(=O)[C@H](C1CCCC1)N(C)C(=O)CN(C)C(=O)[C@@H]1N[C@@H]1C1CC1)C(=O)N1CCC[C@H](N1)C(=O)OCC(C)(C)C2 [Compound 325] |  |  |  | < 10 | < 10 | < 5000
12 | CCn1c(-c2cccnc2[C@H](C)OC)c2c3cc(ccc31)-c1cc(O)cc(c1)C[C@H](NC(=O)[C@H](C(C)C)N(C)C(=O)CN(C)C(=O)[C@H]1CN1CCCOC(C)=O)C(=O)N1CCC[C@H](N1)C(=O)OCC(C)(C)C2 (stereo partly drawn) [Compound 266] | < 10 | 100 to 1000 | < 5000 |  |  | 
13 | CCn1c(-c2cccnc2[C@H](C)OC)c2c3cc(ccc31)-c1csc(n1)C[C@H](NC(=O)[C@H](C(C)C)N(C)C(=O)N1CC[C@@H](N(C)C(=O)[C@@H]3CN3)C1)C(=O)N1CCC[C@H](N1)C(=O)OCC(C)(C)C2 [Compound 227] |  |  |  | 10 to 100 | 1000 to 10000 | < 5000
14 | CCn1c(-c2cccnc2[C@H](C)OC)c2c3cc(ccc31)-c1cc(O)cc(c1)C[C@H](NC(=O)[C@H](C(C)C)N(C)C(=O)C13CCC(CC1)N3C(=O)[C@H]1CN1)C(=O)N1CCC[C@H](N1)C(=O)OCC(C)(C)C2 [Compound 202] |  |  |  | 100 to 1000 | 1000 to 10000 | < 5000
15 | CCn1c(-c2cccnc2[C@H](C)OC)c2c3cc(ccc31)-c1cc(O)cc(c1)C[C@H](NC(=O)[C@H](C(C)C)N(C)C(=O)[C@H]1CCCN(C(=O)[C@@H]3CN3)C1)C(=O)N1CCC[C@H](N1)C(=O)OCC(C)(C)C2 [Compound 236] |  |  |  | < 10 | 1000 to 10000 | < 5000
16 | CCn1c(-c2cccnc2[C@H](C)OC)c2c3cc(ccc31)-c1cc(O)cc(c1)C[C@H](NC(=O)[C@H](C(C)C)N(C)C(=O)CN(C)C(=O)[C@H]1CN1CCCOC)C(=O)N1CCC[C@H](N1)C(=O)OCC(C)(C)C2 (stereo partly drawn) [Compound 201] | < 10 | 100 to 1000 | < 5000 |  |  | 
17 | CCn1c(-c2cccnc2[C@H](C)OC)c2c3cc(ccc31)-c1cc(O)cc(c1)C[C@H](NC(=O)[C@H](C(C)C)N(C)C(=O)[C@H](C)N(C)C(=O)[C@H]1CN1)C(=O)N1CCC[C@H](N1)C(=O)OCC(C)(C)C2 [Compound 102] | 10 to 100 | 100 to 1000 | < 5000 |  |  | 
18 | CCn1c(-c2cccnc2[C@H](C)OC)c2c3cc(ccc31)-c1csc(n1)C[C@H](NC(=O)[C@H](C(C)C)N(C)C(=O)N1CCN(C(=O)[C@@H]3CN3)[C@H](C)C1)C(=O)N1CCC[C@H](N1)C(=O)OCC(C)(C)C2 [Compound 300] |  |  |  | 10 to 100 | 100 to 1000 | < 5000
19 | CCn1c(-c2cccnc2[C@H](C)OC)c2c3cc(ccc31)-c1cc(O)cc(c1)C[C@H](NC(=O)[C@H](C(C)C)N(C)C(=O)CN(C)C(=O)[C@@H]1CN1CCCC#N)C(=O)N1CCC[C@H](N1)C(=O)OCC(C)(C)C2 (stereo partly drawn) [Compound 274] | < 10 | 100 to 1000 | < 5000 |  |  | 
20 | CCn1c(-c2cccnc2[C@H](C)OC)c2c3cc(ccc31)-c1cc(O)cc(c1)C[C@H](NC(=O)[C@H](C1CCCC1)N(C)C(=O)CN(C)C(=O)[C@@H]1N[C@@H]1C1(OC)CC1)C(=O)N1CCC[C@H](N1)C(=O)OCC(C)(C)C2 (single isomer, unassigned) [Compound 323] |  |  |  | 10 to 100 | 100 to 1000 | < 5000
21 | CCn1c(-c2cnccc2COC)c2c3cc(ccc31)-c1cc(O)cc(c1)C[C@H](NC(=O)[C@H](C(C)C)N(C)C(=O)CN(C)C(=O)[C@H]1N[C@@H]1c1ccccc1)C(=O)N1CCC[C@H](N1)C(=O)OCC(C)(C)C2 [Compound 12] | 100 to 1000 | 100 to 1000 | < 5000 |  |  | 
22 | CCn1c(-c2cccnc2[C@H](C)OC)c2c3cc(ccc31)-c1cc(O)cc(c1)C[C@H](NC(=O)[C@H](C(C)C)N1CCC3(CCN(C(=O)[C@H]4CN4)C3)C1=O)C(=O)N1CCC[C@H](N1)C(=O)OCC(C)(C)C2 (stereo partly drawn) [Compound 59] |  |  |  | < 10 | 100 to 1000 | < 5000
23 | CC[C@@H]1N[C@@H]1C(=O)N(C)CC(=O)N(C)[C@H](C(=O)N[C@H]1Cc2cc(O)cc(c2)-c2ccc3c(c2)c(c(-c2cccnc2[C@H](C)OC)n3CC)CC(C)(C)COC(=O)[C@@H]2CCCN(N2)C1=O)C(C)C [Compound 263] | 10 to 100 | 100 to 1000 | < 5000 |  |  | 
24 | CCn1c(-c2cccnc2[C@H](C)OC)c2c3cc(ccc31)-c1csc(n1)C[C@H](NC(=O)[C@H](C(C)C)N(C)C(=O)N(C)CCN(C)C(=O)[C@@H]1CN1)C(=O)N1CCC[C@H](N1)C(=O)OCC(C)(C)C2 [Compound 217] |  |  |  | 10 to 100 | 100 to 1000 | < 5000
25 | CCn1c(-c2cccnc2[C@H](C)OC)c2c3cc(ccc31)-c1csc(n1)C[C@H](NC(=O)[C@H](C(C)C)N(C)C(=O)N1CCCN(C(=O)[C@H]3CN3)CC1)C(=O)N1CCC[C@H](N1)C(=O)OCC(C)(C)C2 [Compound 222] |  |  |  | < 10 | 100 to 1000 | < 5000
